# Experimental data reported in US20070238770A1, “PROCESS FOR PREPARING NOVEL CRYSTALLINE FORMS OF PELIGLITAZAR, NOVEL STABLE FORMS PRODUCED THEREIN AND FORMULATIONS” (Bristol-Myers Squibb Company, priority 2006, published 2007).
# Legend:
# Solubility in water = format: physicochemical; settings: final pH 7.6
# [1] = Solid state stability under storage conditions (DSC, PXRD, HPLC); settings: for solid state stability (physically and chemically): RT/RL, 25° C./60% RH, 40° C./75% RH, 50° C., up to 2 weeks, DSC, PXRD, HPLC analysis
# [2] = Moisture-sorption isotherm; format: physicochemical; settings: from 25 to 75% RH at 25° C.
# Method: Moisture sorption isotherms were collected in a VTI SGA-100 Symmetric Vapor Analyzer using approximately 10 mg of sample. The sample was dried at 60° C. until the loss rate of 0.0005 wt %/min was obtained for 10 minutes. The sample was tested at 25° C. and 3 or 4, 5, 15, 25, 35, 45, 50, 65, 75, 85, and 95% RH. Equilibration at each RH was reached when the rate of 0.0003 wt %/min for 35 minutes was achieved or a maximum of 600 minutes.
# [3] = Mechanical stress on crystal form; format: physicochemical; settings: mechanical stress applied
Structure (SMILES),solubility in water (Solubility in water),solid state stability (physically and chemically) [1],moisture uptake (hygroscopicity) [2],conversion of the N-1 form to the N-2 form (PXRD analysis) ([1]; under the storage conditions of b18),conversion of N-1 form to the N-2 form under mechanical stress [3]
COc1ccc(OC(=O)N(CC(=O)O)[C@@H](C)c2ccc(OCCc3nc(-c4ccccc4)oc3C)cc2)cc1.NCCCC[C@H](N)C(=O)O,greater than 124 mg/mL,stable,–,–,–
"COc1ccc(OC(=O)N(CC(=O)O)[C@@H](C)c2ccc(OCCc3nc(-c4ccccc4)oc3C)cc2)cc1 [Form N-1, peliglitazar]",–,stable,negligible,no conversion,will not cause conversion
